Assay results from patent US8460906B2, “Immobilized product tolerant microorganisms” (Cobalt Technologies, Inc., priority 2008, dated 2013).
Read-outs that look alike come from different tables or passages of the source.

Assays:
Co-5673 [1] = conditions: liquid P2+4% Xylose, 24 and 96 hr time points
Experimental: (§1) The next day, the OD600 of the seed train tubes was measured. […] Control tubes without inoculum were also prepared. Tubes were incubated in an anaerobic hood.
(§2) After 1 day and 3-4 days, the OD600 of liquid cultures was measured. Plates were examined for growth. […] OD600 at start (0 hr) was based on a 1:20 inoculation of the starter cultures.

Co-7449 = conditions: liquid P2+4% Xylose, 24 and 96 hr time points
Experimental: as §1, §2

Co-0124 [2] = conditions: liquid P2+4% Xylose, 24 and 96 hr time points
Experimental: as §1, §2

[3] = tested on: mutants of C. saccharobutylicum strain Co-7449; conditions: suspension culture, colonies from 5% butanol RCM plates
[4] = tested on: environmental sample (isolate)
Experimental: An environmental sample (isolate) is obtained. The isolate is plated on a set of identical plates containing a nutrient agar.

[5] = tested on: mutants of C. saccharobutylicum strain Co-7449
Experimental: (§3) In some embodiments, solvent tolerant microorganisms are mutagenized and selected for increased solvent tolerance on solid support. In some embodiments, solvent tolerant mutants can be used for either solvent or organic acid production. […] In some embodiments of the present invention, solvent tolerance is a relative value that is measured by comparing the growth ability of a mutant microorganism on a semi-solid or solid support to the growth ability of the non-mutant parent microorganism on the same semi-solid or solid support. Typically, the semi-solid or solid support comprises a growth media and a specified concentration of a solvent that is usually measured on a volume to volume (v/v) basis. Generally, multiple containers, usually petri dishes, are filled with semi-solid or solid support representing a range of solvent concentration. […] The highest concentration at which colonies still form represents the solvent tolerance of the microorganism. An alternative solvent tolerance test method is to overlay the non-solvent support with a solution containing a specified concentration of a solvent.
Clostridium saccharobutylicum strain Co-7449 was grown in yeast extract medium (YEM) to an approximate OD600 of 3 and was treated with a final concentration of 50 μg/ml N-methyl-N′-nitro-N-nitrosoguanidine (MNNG) for 15 minutes. Cells were twice washed with glucose-free YEM and plated on Reinforced Clostridium Medium (RCM) at 10^−3 and 10^−4 dilution to recover 3000-4000 colonies.

Co-5673 [6] = conditions: solid media P2+4% Xylose
Experimental: (§4) On the first day, a seed train of a strain to be investigated was started in 5 ml cultures of P2+4% Xylose in the anaerobic hood. A 1-L volume of sterile P2 medium containing 4% Xylose and agar was prepared and place on hot plate. […] The solution was mixed well and plates were poured in a sterile environment. After the plates were solidified, they were transferred to the anaerobic hood and parafilmed immediately prior to storage overnight.
as §1, §2

Co-0124 [7] = conditions: solid media P2+4% Xylose
Experimental: as §4, §1, §2

[8] = tested on: Clostridium saccharobutylicum strain Co-7449; conditions: for highest butanol concentration of plates showing growth: solid media P2+4% Xylose
Experimental: as §3, §4, §1, §2

butanol
highest butanol concentration at which OD600 increased (Co-5673 [1]): 1.4 % (v/v) | highest butanol concentration at which OD600 increased (Co-7449): 1.4 % (v/v) | highest butanol concentration at which OD600 increased (Co-0124 [2]): 1.6 % (v/v) | growth in YEM with 1.2% butanol added to the broth [3]: did not grow | butanol concentration the adapted strain grows in ([4]; after 20 passages on solid support with increasing butanol): 2.5% | highest butanol concentration of plates with colonies ([4]; unadapted isolate, no growth at 1.8% or 2.0%): 1.6% | tolerance for butanol compared to the parent Co-7449 strain ([5]; mutants grown on a solid support): at least a two-fold higher tolerance | growth on 5% butanol plates after culture in YEM without butanol ([5]; samples removed from liquid YEM, plated on 5% butanol plates): failed to grow | relative solvent tolerance of the mutants versus non-mutant parent strain ([5]; {}): at least 225% | highest butanol concentration of plates showing growth (Co-5673 [6]; 24 hour): 2.2% | highest butanol concentration of plates showing growth (Co-5673 [6]; 96 hour): 2.2% | highest butanol concentration of plates showing growth (Co-0124 [7]; 24 hour): 2.2% | highest butanol concentration of plates showing growth (Co-0124 [7]; 96 hour): 2.3% | butanol tolerance result on solid media ([8]; 24 hr, separate experiment): 2.1% | highest butanol concentration of plates showing growth ([8]; 24 hour): 0% | highest butanol concentration of plates showing growth ([8]; 96 hour): 2.2%
